# Experimental data from patent publication US10064873B2, “Compounds and compositions for treating HIV with derivatives of Betulin” (GlaxoSmithKline LLC, priority 2011, dated 2018).
# Tested on: HIV NL4-3 wt
# Assay: MT4 antiviral assay, NL4-3 strain wild type
# Format: cell-based, HIV-1
# Conditions: Human immunodeficiency virus 1, NL43, MT4, read-out: EC50 NL4-3 wt (nM)
row,Compound,EC50
1,"CC(C)C1=C2[C@H]3CC[C@@H]4[C@@]5(C)CC[C@H](OC(=O)CC(C)(C)C(=O)O)C(C)(C)[C@@H]5CC[C@@]4(C)[C@]3(C)CC[C@@]2([C@H](CN(CCN(C)C)Cc2ccc(Cl)cc2)OC(=O)CC(C)(C)C(=O)O)CC1=O [Example 2, 4-((R)-1-((3aR,5aR,5bR,7aR,9S,11aR,11bR,13aS)-9-((3-Carboxy-3-methylbutanoyl)oxy)-1-isopropyl-5a,5b,8,8,11a-pentamethyl-2-oxo-3,3a,4,5,5a,5b,6,7,7a,8,9,10,11,11a,11b,12,13,13a-octadecahydro-2H-cyclopenta[a]chrysen-3a-yl)-2-((4-chlorobenzyl)(2-(dimethylamino)ethyl)amino)ethoxy)-2,2-dimethyl-4-oxobutanoic acid]",5.2 nM
2,"CC(C)C1=C2[C@H]3CC[C@@H]4[C@@]5(C)CC[C@H](OC(=O)CC(C)(C)C(=O)O)C(C)(C)[C@@H]5CC[C@@]4(C)[C@]3(C)CC[C@@]2([C@@H](CN(CCN(C)C)Cc2ccc(Cl)cc2)OC(=O)CC(C)(C)C(=O)O)CC1=O [Example 4, 4-((S)-1-((3aR,5aR,5bR,7aR,9S,11aR,11bR,13aS)-9-((3-Carboxy-3-methylbutanoyl)oxy)-1-isopropyl-5a,5b,8,8,11a-pentamethyl-2-oxo-3,3a,4,5,5a,5b,6,7,7a,8,9,10,11,11a,11b,12,13,13a-octadecahydro-2H-cyclopenta[a]chrysen-3a-yl)-2-((4-chlorobenzyl)(2-(dimethylamino)ethyl)amino)ethoxy)-2,2-dimethyl-4-oxobutanoic acid]",10.1 nM

# Same assay, conditions: Human immunodeficiency virus 1, NL43; MT4 cells; read-out: EC50 NL4-3 wt
row,Compound,EC50
1,"CC(C)C1=C2[C@H]3CC[C@@H]4[C@@]5(C)CC[C@H](OC(=O)CC(C)(C)C(=O)O)C(C)(C)[C@@H]5CC[C@@]4(C)[C@]3(C)CC[C@@]2([C@@H](O)CN2CCN(C)CC2)CC1 (racemic) [Example 65, 4-(((3aS,5aR,5bR,7aR,9S,11aR,11bR,13aS)-3a-((R)-1-hydroxy-2-(4-methylpiperazin-1-yl)ethyl)-1-isopropyl-5a,5b,8,8,11a-pentamethyl-3,3a,4,5,5a,5b,6,7,7a,8,9,10,11,11a,11b,12,13,13a-octadecahydro-2H-cyclopenta[a]chrysen-9-yl)oxy)-2,2-dimethyl-4-oxobutanoic acid]",83.8 nM
2,CC(=O)N(Cc1cccc(Cl)c1)C[C@H](O)[C@@]12CC[C@]3(C)[C@H](CC[C@@H]4[C@@]5(C)CC[C@H](OC(=O)CC(C)(C)C(=O)O)C(C)(C)[C@@H]5CC[C@]43C)C1=C(C(C)C)C(=O)C2 [Compound 46],11.1 nM
3,CC(C)C1=C2[C@H]3CC[C@@H]4[C@@]5(C)CC[C@H](OC(=O)CC(C)(C)C(=O)O)C(C)(C)[C@@H]5CC[C@@]4(C)[C@]3(C)CC[C@@]2([C@H](O)CN(CCN(C)C)Cc2ccccc2Cl)CC1=O [Compound 51],3.5 nM
4,"CC(C)C1=C2[C@H]3CC[C@@H]4[C@@]5(C)CC[C@H](OC(=O)CC(C)(C)C(=O)O)C(C)(C)[C@@H]5CC[C@@]4(C)[C@]3(C)CC[C@@]2([C@H](CNCc2ccc(Cl)cc2)OC(=O)CC(C)(C)C(=O)O)CC1=O [Example 1, 4-((R)-1-((3aR,5aR,5bR,7aR,9S,11aR,11bR,13aS)-9-((3-carboxy-3-methylbutanoyl)oxy)-1-isopropyl-5a,5b,8,8,11a-pentamethyl-2-oxo-3,3a,4,5,5a,5b,6,7,7a,8,9,10,11,11a,11b,12,13,13a-octadecahydro-2H-cyclopenta[a]chrysen-3a-yl)-2-((4-chlorobenzyl)amino)ethoxy)-2,2-dimethyl-4-oxobutanoic acid]",41.1 nM
5,"CC(C)C1=C2[C@H]3CC[C@@H]4[C@@]5(C)CC[C@H](OC(=O)CC(C)(C)C(=O)O)C(C)(C)[C@@H]5CC[C@@]4(C)[C@]3(C)CC[C@@]2([C@@H](CNCc2ccc(Cl)cc2)OC(=O)CC(C)(C)C(=O)O)CC1=O [Example 3, 4-[(1S)-1-[(1R,2R,5R,10S,13R,14R, 17S,19R)-17-[(3-carboxy-3,3-dimethylpropanoyl)oxy]-1,2,14,18,18-pentamethyl-7-oxo-8-(propan-2-yl)pentacyclo[11.8.0.0^ {2,10}.0^{5,9}.0^{14,19}]henicos-8-en-5-yl]-2-{[(4-chlorophenyl)methyl]amino}ethoxy]-2,2-dimethyl-4-oxobutanoic acid]",61.7 nM
